Measurements from ChEMBL document CHEMBL1122804, “Synthesis of imidazo[1,2-a]pyrazine derivatives with uterine-relaxing, antibronchospastic, and cardiac-stimulating properties” (1984).

Species on record: Rattus norvegicus
Test: Inhibition of the uterine smooth muscle contraction induced by histamine on the isolated rat uterus.
Assay type: functional
Conditions: read-out: ED50

Row | SMILES | EC50
1 | Brc1cncc2nccn12 | 290 µM
2 | N#Cc1cn2ccncc2n1 | 2380 µM
3 | NC(=O)c1cn2ccncc2n1 | 1500 µM
4 | ClCc1cn2ccncc2n1 | 1400 µM
5 | N#Cc1cn2c(Br)cncc2n1 | 780 µM
6 | CC(=O)c1c(Cl)nc2cnccn12 | 880 µM
7 | Cc1cn2ccncc2n1 | 750 µM
8 | O=C(O)c1cn2ccncc2n1 | 1720 µM
9 | OCc1cn2ccncc2n1 | 2700 µM
10 | Cn1c(=O)c2nc[nH]c2n(C)c1=O [THEOPHYLLINE] | 900 µM

The remaining lines, values ahead:

Row | EC50 | SMILES
11 | 102 µM | CCOC(=O)c1[nH]c2nccnc2c1C
12 | 150 µM | CCOC(=O)c1cn2cc(Br)nc(Br)c2n1
13 | 240 µM | Brc1cn2ccnc2c(Br)n1
14 | 152 µM | CCOC(=O)c1c(C)nc2cnccn12
15 | 410 µM | NC(=O)c1cn2c(Br)cncc2n1
16 | 96 µM | CCOC(=O)Cc1cn2cc(Br)nc(Br)c2n1
17 | 1110 µM | CCOC(=O)c1cn2ccncc2n1
18 | 1020 µM | CCOC(=O)c1cn2c(Br)cncc2n1

Species on record: Rattus norvegicus
Test: Inhibition of the uterine smooth muscle contraction induced by histamine on the isolated rat uterus
Assay type: functional
Conditions: read-out: ED50 (the source's name)

Row | EC50 | SMILES
19 | 0.0016 µM | c1cn2ccnc2cn1

Species on record: Rattus norvegicus
Test: Inhibition of the uterine smooth muscle contraction induced by histamine on the isolated rat uterus at high dose.
Assay type: functional
Conditions: read-out: ED50 (the source's name)

Row | EC50 | SMILES
20 | 0.34 nM | Nc1nc2cnccn2c1Br
21 | 0.09 nM | N#Cc1cn2cc(Br)nc(Br)c2n1

Species on record: Cavia porcellus
Test: Inhibition of the bronchospasm induced by histamine in guinea pig at the high concentration/dose.
Assay type: functional
Conditions: not given

Row | SMILES | ED50
22 | CCOC(=O)c1cn2cc(Br)nc(Br)c2n1 | >0.016 µM

Species on record: Rattus norvegicus
Test: Inhibition of the uterine smooth muscle contraction induced by histamine on the isolated rat uterus at high dose /concentration.
Assay type: functional
Conditions: read-out: ED50 (the source's name)

Row | EC50 | SMILES
23 | 0.00033 µM | NC(=O)c1cn2cc(Br)nc(Br)c2n1

Species on record: Cavia porcellus
Test: Inhibition of the bronchospasm induced by histamine in guinea pigat the high concentration / dose
Assay type: functional
Conditions: not given

Row | SMILES | ED50
24 | ClCc1cn2ccncc2n1 | >0.072 µM

Species on record: Rattus norvegicus
Test: Inhibition of the uterine smooth muscle contraction induced by histamine on the isolated rat uterus at high dose
Assay type: functional
Conditions: read-out: ED50 (the source's name)

Row | EC50 | SMILES
25 | > 0.0024 µM | COC(=O)c1cn2ccncc2n1
